Measured values published in US20100268321A1, “DRUG-RELEASING GRAFT” (C R BARD, INC., priority 2005, published 2010).

Assay: Controlled release study: release of chlorhexidine acetate (ChAc) from drug-loaded ePTFE vascular cuff graft sections into PBS, UV absorbance
Format: physicochemical
Details: from ePTFE cuff section in PBS
Protocol: With respect to a vascular cuff graft, examples of which are shown in FIGS. 2 and 3, experimentation was conducted to study the release of a drug without a polymeric carrier from the cuff surface. The drug chosen for the experiment was chlorhexidine acetate (ChAc) and the release time was scheduled for nine weeks. The materials and methods of the experiment included creating a calibration curve, preparing the vascular cuff grafts, and measuring absorbance, each of which is described in detail below.
Initially, a calibration curve was created to determine the concentration of ChAc in phosphate buffered saline (PBS). […] The absorbance of each of these solutions was determined using the Shimadzu UV-1601 spectrophotometer. A curve of absorbance versus concentration was expected to be linear. […]
To prepare the vascular cuff grafts, the drug was embedded therein using the following procedure. […] The cuff section weights with the loaded drug were then determined and recorded. The cuff section weights without the loaded drug were determined after the study by washing the cuffs with ethanol and drying. […]
Absorbance was measured to determine the amount of drug released from the cuff sections. […] The PBS solutions were then analyzed using the Shimadzu UV 1600 spectrophotometer. […] The absorbance at ˜286 nm was recorded by automatic peak detection by the spectrophotometer. […]

CC(=O)O.CC(=O)O.NC(=N\CCCCCC/N=C(N)/N=C(\N)Nc1ccc(Cl)cc1)/N=C(\N)Nc1ccc(Cl)cc1 [ChAc, chlorhexidine acetate]
levels of the drug in release medium (after nine weeks): still detectable | drug released (after one day): approximately 50%
